From patent US10023836B2, “Medium for yeasts” (YAMAGUCHI UNIVERSITY, priority 2012, dated 2018)

Legend:
[1] = system: RAK2683 yeast strain; assay: Investigation of nitrogen source used singly in MM culture medium instead of ammonium sulfate (Table 4); assay type: cell-based, Saccharomyces cerevisiae; settings: Table 4 conditions
[2] = system: Saccharomyces cerevisiae RAK3599 strain; assay: SynAA culture medium: elimination of single components and inorganic ion concentration; assay type: cell-based; settings: one component of the inorganic ion mix eliminated from SynAA culture medium
Method: In a case where no special provisions are made, a procedure for a cultivation experiment using the culture medium to be investigated for proliferation was such that a yeast undergoing investigation was pre-cultured in a YPD liquid culture medium at 28° C. for 24 hours, after which the yeast was adjusted such that OD600=20. […] In addition, OD600 was measured every 15 minutes by a spectrophotometer (Cell density meter co8000, WPA). Hereafter, data is represented by graphs for a case using the automatic spectrophotometer; however, these graphs are primarily used to compare the slope of logarithmic growth phase proliferation curves for each culture medium, and because OD600 is measured without dilution, values where OD600=3 to 3.5 or more may be incorrect.
Culture mediums were prepared in which one component each of the components configuring the inorganic ion mix was eliminated from the SynAA culture medium, and OD600 was measured. […] Thereafter, an investigation specifically of inorganic ion concentration was conducted. […] An investigation was conducted using RAK3599 strain (hereafter, simply referred to as “RAK3599 strain”), which is a strain of Saccharomyces cerevisiae not having a particular nutritional requirement. Where no subsequent special provisions were made, proliferation was investigated by performing roller tube culture for an appropriate amount of time at 28° C. and measuring OD600.
MgSO4 concentration in the SynAA culture mediums was adjusted to 0%, 0.0001%, 0.001%, 0.01%, 0.1%, and 1%, respectively, and proliferation of the RAK3599 strain was investigated. […] Next, MgCl2 concentration in the SynAA culture mediums was adjusted to 0.001%, 0.01%, 0.1%, and 1%, respectively, and proliferation of the RAK3599 strain was investigated.
A culture medium was prepared in which one component each of the components configuring the vitamin mix was eliminated from the SynAA culture medium, with the SynAA culture medium as the control, and proliferation of the RAK3599 strain was investigated.

[3] = system: RAK3599 strain; assay: Investigation with AID and aY-AID culture medium (FIGS. 29 to 39); assay type: cell-based, Saccharomyces cerevisiae; settings: for effect on proliferation when added at high concentrations: up to 1% or up to 0.2500%
Method: As shown in the following, an investigation was conducted into concentrations of each amino acid and a substitution potential of pantothenic acid for the amino acid in the AID culture medium. A suitable YPD culture medium was used as a control.
Next, the amino acids asparagine, isoleucine, phenylalanine, and valine were each adjusted to a culture medium additive concentration of […], 0.0312%, 0.0625%, 0.1250%, and 0.2500%, and OD600 was measured after 24 hours.
Isoleucine concentration in the aY-AID culture medium was adjusted to 0, 0.01 mg/mL, 0.1 mg/mL, 0.5 mg/mL, and 1 mg/mL, respectively, and proliferation of the RAK3599 strain was investigated.
Phenylalanine concentration in the aY-AID culture medium was adjusted to 0, 0.01, 0.1, 0.5, and 1 mg/mL, respectively, and proliferation of the RAK3599 strain was investigated.
Valine concentration in the aY-AID culture medium was adjusted to 0, 0.01, 0.1, 0.5, and 1 mg/mL, respectively, and proliferation of the RAK3599 strain was investigated.
Serine concentration in the AID culture medium was adjusted to 0, 0.01 mg/mL, 0.1 mg/mL, 0.5 mg/mL, and 1 mg/mL, respectively, and proliferation of the RAK3599 strain was investigated.
Threonine concentration in the AID culture medium was adjusted to 0, 0.01, 0.1, 0.5, and 1 mg/mL, respectively, and proliferation of the RAK3599 strain was investigated.
Asparagine concentration in the AID culture medium was adjusted to 0, 0.01, 0.1, 0.5, and 1 mg/mL, respectively, and proliferation of the RAK3599 strain was investigated.
An investigation was conducted into vitamins contained in the AID culture medium. […]

[4] = system: Saccharomyces cerevisiae RAK3599 strain; assay: Glutamine, cysteine and amino acid groups in AYD′ / AYD culture medium (FIGS. 40, 41); assay type: cell-based
Method: For the AYD′ culture medium, an investigation was conducted into glutamine and cysteine concentrations using Saccharomyces cerevisiae RAK3599 strain.

[5] = system: Saccharomyces cerevisiae histidine-requiring BY4714 (his3Δ1) strain; assay: Histidine concentration in AKD culture medium (FIG. 17); assay type: cell-based
Method: Histidine concentration in the AKD culture mediums was adjusted to 0.001%, 0.01%, 0.1%, and 1%, respectively, and proliferation of a Saccharomyces cerevisiae histidine-requiring BY4714 (his3Δ1) strain was investigated. A maximum value was reached between 0.01% and […]. OD600 for 1/100 solutions after 42 hours was 0.07, 0.18, 0.18, and 0.15, respectively. Given the above-noted results, a preferred histidine concentration was understood to be around 0.01%.

[6] = system: Saccharomyces cerevisiae tryptophan-requiring BY4710 (trp1Δ) strain; assay: Tryptophan concentration in AKD culture medium (FIG. 18); assay type: cell-based
Method: Tryptophan concentration in the AKD culture mediums was adjusted to 0.001%, 0.01%, 0.1%, and 1%, respectively, and proliferation of a Saccharomyces cerevisiae tryptophan-requiring BY4710 (trp1Δ) strain was investigated. OD600 for 1/100 solutions after 48 hours was 0.08, 0.15, 0.13, and 0.12, respectively. […] Given the above-noted results, a preferred tryptophan concentration was understood to be around 0.01%.

[7] = system: Saccharomyces cerevisiae adenine-requiring BY4725 (ade2Δ) strain; assay: Adenine concentration in AKD culture medium (FIG. 20); assay type: cell-based
Method: A concentration of adenine contained in the amino acid mix of the AKD culture mediums for convenience was adjusted to 0%, 0.005%, 0.01%, 0.05%, 0.1%, and 0.5%, respectively, and proliferation of a Saccharomyces cerevisiae adenine-requiring BY4725 (ade2Δ) strain was investigated. OD600 for 1/20 solutions after 42 hours was 4, 15, 18, 18, 13 and 16, respectively. […] Given the above-noted results, a preferred adenine concentration was understood to be around 0.01%.

[8] = system: Saccharomyces cerevisiae uracil-requiring BY4700 (ura3Δ) strain; assay: Uracil concentration in AKD culture medium (FIG. 19); assay type: cell-based
Method: A concentration of uracil contained in the amino acid mix of the AKD culture mediums for convenience was adjusted to 0.001%, 0.005%, 0.05%, 0.1%, and 0.5%, respectively, and proliferation of a Saccharomyces cerevisiae uracil-requiring BY4700 (ura3Δ) strain was investigated. OD600 for 1/100 solutions after 42 hours was 0.10, 0.21, 0.21, 0.22 and 0.20, respectively. Proliferation was confirmed to be low at 0.001%, to increase at 0.005%. and to markedly increase at between 0.05% and 0.1%. Proliferation was confirmed to be somewhat inhibited at 0.5%. Given the above-noted results, a preferred uracil concentration was understood to be around 0.01%.

## N.N.O=S(=O)(O)O [Ammonium sulfate]
[1]
  proliferation when added singly as nitrogen source: proliferation was confirmed to be extremely poor
[2]
  proliferation when the component is not added: higher proliferation

## N[C@@H](CS)C(=O)O [Cysteine, L-Cysteine]
[3]; AID culture medium
  effect on proliferation when added at high concentrations: proliferation was confirmed to be inhibited
[4]; AYD′ culture medium
  appropriate concentration: around 0.01 g/L

## N[C@@H](CCC(=O)[O-])C(=O)[O-].O.[Na+].[Na+] [Glutamic acid, L-Glutamic acid sodium salt hydrate]
[1]
  proliferation when added singly as nitrogen source: favorable proliferation

## NC(=O)CC[C@H](N)C(=O)O [Glutamine, L-Glutamine]
[3]; AID culture medium
  effect on proliferation when added at high concentrations: proliferation was confirmed to be inhibited
[4]; AYD′ culture medium
  appropriate concentration: 5 g/L
[4]; AYD′ culture medium, glutamine concentration set to 10 times the previous concentration
  growth: growth was confirmed to be extremely improved

## NCC(=O)O [Glycine]
[3]; AID culture medium
  effect on proliferation when added at high concentrations: proliferation was confirmed to be inhibited
[1]
  proliferation when added singly as nitrogen source: almost no proliferation

## Cl.N[C@@H](Cc1c[nH]cn1)C(=O)O.O [Histidine, L-Histidine hydrochloride hydrate]
[1]
  proliferation when added singly as nitrogen source: almost no proliferation
[5]
  preferred concentration: around 0.01%
[5]; histidine 0.001%
  OD600 for 1/100 solutions after 42 hours: 0.07
[5]; histidine 0.01%
  OD600 for 1/100 solutions after 42 hours: 0.18
[5]; histidine 0.1%
  OD600 for 1/100 solutions after 42 hours: 0.18
[5]; histidine 1%
  OD600 for 1/100 solutions after 42 hours: 0.15

## Cl.NCCCC[C@H](N)C(=O)O [Lysine, L-Lysine hydrochloride]
[1]
  proliferation when added singly as nitrogen source: almost no proliferation

## CSCC[C@H](N)C(=O)O [Methionine, L-Methionine]
[3]; AID culture medium
  effect on proliferation when added at high concentrations: proliferation was confirmed to be inhibited
[4]; amino acid group or individual amino acid of the AY5 group eliminated
  proliferation when eliminated from the AYD culture medium: proliferation decreases

## O=C(O)[C@@H]1CCCN1 [Proline, L-Proline]
[1]
  proliferation when added singly as nitrogen source: favorable proliferation

## C[C@@H](O)[C@H](N)C(=O)O [Threonine, L-Threonine]
[3]; AID culture medium
  content at which proliferation particularly increased: around 0.5 mg/mL
  effect on proliferation when added at high concentrations: proliferation was confirmed to be inhibited
[3]; AID or aY-AID culture medium
  preferred concentration / content: around 0.5 g/L
[1]
  proliferation when added singly as nitrogen source: almost no proliferation

## N[C@@H](Cc1c[nH]c2ccccc12)C(=O)O [Tryptophan, L-Tryptophan]
[6]
  concentration at which proliferation was somewhat inhibited: 0.1%
  preferred concentration: around 0.01%
[6]; tryptophan 0.001%
  OD600 for 1/100 solutions after 48 hours: 0.08
[6]; tryptophan 0.01%
  OD600 for 1/100 solutions after 48 hours: 0.15
[6]; tryptophan 0.1%
  OD600 for 1/100 solutions after 48 hours: 0.13
[6]; tryptophan 1%
  OD600 for 1/100 solutions after 48 hours: 0.12

## Nc1ncnc2nc[nH]c12 [adenine]
[7]
  concentration at which proliferation was slightly inhibited: ≥ 0.1%
  preferred concentration: around 0.01%
[7]; adenine 0%
  OD600 for 1/20 solutions after 42 hours: 4
[7]; adenine 0.005%
  OD600 for 1/20 solutions after 42 hours: 15
[7]; adenine 0.01%
  OD600 for 1/20 solutions after 42 hours: 18
[7]; adenine 0.05%
  OD600 for 1/20 solutions after 42 hours: 18
[7]; adenine 0.1%
  OD600 for 1/20 solutions after 42 hours: 13
[7]; adenine 0.5%
  OD600 for 1/20 solutions after 42 hours: 16

## O=c1cc[nH]c(=O)[nH]1 [uracil]
[8]
  concentration at which proliferation was somewhat inhibited: 0.5%
  preferred concentration: around 0.01%
[8]; uracil 0.001%
  OD600 for 1/100 solutions after 42 hours: 0.10
[8]; uracil 0.005%
  OD600 for 1/100 solutions after 42 hours: 0.21
[8]; uracil 0.05%
  OD600 for 1/100 solutions after 42 hours: 0.21
[8]; uracil 0.1%
  OD600 for 1/100 solutions after 42 hours: 0.22
[8]; uracil 0.5%
  OD600 for 1/100 solutions after 42 hours: 0.20
